Test results published in patent US11965159B2, “Compositions and methods for regulating proteins and nucleic acids activities” (THE BROAD INSTITUTE, INC., priority 2019, dated 2024).
Entries after “also recorded” stand apart in the source; their conditions may differ.

Experiments:
U2OS.eGFP.PEST cells = test: Cell viability assay (ATP content) of U2OS.eGFP.PEST cells; assay type: cell-based, human; settings: for cytotoxicity (ATP content) in secondary screen: 20 μM compounds, 48 h; for cellular ATP-levels: U2OS cells, up to 20 μM, 24 h
Method: FIG. 14—Cell viability assay (ATP content) of U2OS.eGPF.PEST cells in the presence of compounds. Measurement of ATP content of U2OS.eGFP.PEST cells upon incubating with 20 μM compounds for 48 h. Error bars represent ±S.D. from technical replicates (n=3).
FIG. 22—Cell viability assay (ATP content) of U2OS.eGFP.PEST cells in the presence of compounds. Measurement ATP content of U2OS.eGFP.PEST cells upon incubating with BRD7087 and BRD5779 (5-20 μM) for 24 h. Error bars represent ±S.D. from technical replicates (n=3).
FIG. 58. Cell viability assay (ATP content) of U2OS.eGFP.PEST cells in the presence of compounds. Measurement of ATP content of U2OS.eGFP.PEST cells upon incubating with 20 μM compound for 48 h. Error bars represent±S.D. from technical replicates (n=3).
FIG. 66. Cell viability assay (ATP content) of U2OS.eGFP.PEST cells in the presence of compounds. Measurement of ATP content of U2OS.eGFP.PEST cells upon incubating with BRD7087 and BRD5779 (5-20 μM) for 24 h. Error bars represent ±S.D. from technical replicates (n=3).

SpCas9 = SpCas9 (Streptococcus pyogenes serotype M1, UniProt Q99ZW2); test: mCherry-GFP NHEJ assay; assay type: cell-based; design: host or cells: U2OS.eGFP-PEST; settings: 2-10 μM, 24 h
Method: NHEJ assay. Approximately 8,000 cells/well were plated in a 96-well format 24 h before transiently transfected with a total 100 ng of DN66 (mCherry-TAG-GFP reporter) and DN78 (SpCas9 and gRNA) plasmids (1:1) using Lipofectamine™ 2000 (Life Technologies™) 3. Transfected cells were allowed to grow in the indicated amount of compound or DMSO for 24 h. Cells were then fixed using 4% paraformaldehyde and imaged with the HCS NuclearMask™ Blue Stain (Life Technologies™) as the nuclear counter-staining agent. Imaging was performed with an IXM 137204 ImageXpress® Automated High Content Microscope (Molecular Devices™) at 20× magnification under three excitation channels (blue, green and red) with 9 acquiring sites per well. Images were analyzed in the MetaXpress® software to determine the % NHEJ and the data were plotted using GraphPad Prism 6. The Z′-value was calculated following the formula:
NHEJ assay. Approximately 8,000 cells/well were plated in a 96-well format 24 h before transiently transfected with a total 100 ng of DN66 (mCherry-TAG-GFP reporter) and DN78 (SpCas9 and gRNA) plasmids (1:1) using Lipofectamine™ 2000 (Life Technologies™)^3. […] Images were analyzed in the MetaXpress® software to determine the % NHEJ and the data were plotted using GraphPad Prism 6. The Z′-value was calculated following the formula: […]

Chain of SpCas9 (Q99ZW2 whole entry): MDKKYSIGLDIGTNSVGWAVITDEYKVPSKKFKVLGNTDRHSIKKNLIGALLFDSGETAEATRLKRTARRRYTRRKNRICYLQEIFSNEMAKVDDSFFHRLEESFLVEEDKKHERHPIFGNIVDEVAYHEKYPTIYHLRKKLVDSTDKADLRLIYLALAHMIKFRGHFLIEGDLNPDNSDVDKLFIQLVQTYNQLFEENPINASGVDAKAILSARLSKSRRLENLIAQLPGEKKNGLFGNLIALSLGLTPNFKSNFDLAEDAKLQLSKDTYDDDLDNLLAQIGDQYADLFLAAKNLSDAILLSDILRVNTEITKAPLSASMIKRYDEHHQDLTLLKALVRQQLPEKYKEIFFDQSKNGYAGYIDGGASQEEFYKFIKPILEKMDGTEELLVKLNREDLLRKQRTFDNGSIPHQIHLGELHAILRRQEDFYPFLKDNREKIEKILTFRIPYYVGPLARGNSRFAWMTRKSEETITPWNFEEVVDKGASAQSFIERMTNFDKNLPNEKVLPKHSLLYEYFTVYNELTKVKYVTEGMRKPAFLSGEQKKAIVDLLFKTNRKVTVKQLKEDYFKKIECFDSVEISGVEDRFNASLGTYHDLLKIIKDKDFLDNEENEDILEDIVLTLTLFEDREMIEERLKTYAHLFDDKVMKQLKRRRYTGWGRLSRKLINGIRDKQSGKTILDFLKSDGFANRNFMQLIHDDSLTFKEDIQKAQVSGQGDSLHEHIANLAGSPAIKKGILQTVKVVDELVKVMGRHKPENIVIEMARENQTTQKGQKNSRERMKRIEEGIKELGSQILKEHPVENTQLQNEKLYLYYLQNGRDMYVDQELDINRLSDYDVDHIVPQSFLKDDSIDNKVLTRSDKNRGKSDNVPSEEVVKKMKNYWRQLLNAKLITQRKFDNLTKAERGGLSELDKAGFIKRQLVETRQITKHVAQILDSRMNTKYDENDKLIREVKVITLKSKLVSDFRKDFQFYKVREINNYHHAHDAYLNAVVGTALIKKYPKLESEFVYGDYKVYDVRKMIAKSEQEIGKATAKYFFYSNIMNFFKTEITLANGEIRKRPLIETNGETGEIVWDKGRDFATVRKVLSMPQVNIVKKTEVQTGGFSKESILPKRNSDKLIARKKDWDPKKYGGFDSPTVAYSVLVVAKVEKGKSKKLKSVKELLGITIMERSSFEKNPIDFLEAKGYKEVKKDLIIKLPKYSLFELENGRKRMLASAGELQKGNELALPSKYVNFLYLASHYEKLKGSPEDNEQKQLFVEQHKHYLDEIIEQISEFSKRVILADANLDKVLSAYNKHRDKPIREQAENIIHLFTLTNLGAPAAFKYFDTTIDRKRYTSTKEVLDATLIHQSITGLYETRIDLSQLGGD

COc1ccc(-c2ccc3c(c2)[C@H]2[C@H](CCN2Cc2ccncc2)[C@@H](CO)N3)cc1 [BRD5779, ((3aR,4S,9bR)-8-(4-Methoxyphenyl)-1-(pyridin-4-ylmethyl)-2,3,3a,4,5,9b-hexahydro-1H-pyrrolo[3,2-c]quinolin-4-yl)methanol]
cytotoxicity (ATP content) in secondary screen (U2OS.eGFP.PEST cells): non-toxic | cellular ATP-levels (U2OS.eGFP.PEST cells): did not significantly alter | inhibition of SpCas9-mediated NHEJ (SpCas9): active; also recorded: Dose-dependent inhibition of SpCas9-mediated NHEJ

OC[C@H]1Nc2ccc(-c3cccc(F)c3)cc2[C@H]2[C@@H]1CCN2Cc1ccncc1 [BRD7087, ((3aR,4S,9bR)-8-(3-Fluorophenyl)-1-(pyridin-4-ylmethyl)-2,3,3a,4,5,9b-hexahydro-1H-pyrrolo[3,2-c]quinolin-4-yl)methanol]
cytotoxicity (ATP content) in secondary screen (U2OS.eGFP.PEST cells): non-toxic | cellular ATP-levels (U2OS.eGFP.PEST cells): did not significantly alter | inhibition of SpCas9-mediated NHEJ (SpCas9): active; also recorded: Dose-dependent inhibition of SpCas9-mediated NHEJ
